Target: T1, CCR2 (Homo sapiens, UniProt P41597)
T1 construct: Membranes were prepared from THP-1 cells; endogenous in cells; host or cells: THP-1 cells (membrane preparation)
T1 sequence (P41597 1-360 isoform P41597-2): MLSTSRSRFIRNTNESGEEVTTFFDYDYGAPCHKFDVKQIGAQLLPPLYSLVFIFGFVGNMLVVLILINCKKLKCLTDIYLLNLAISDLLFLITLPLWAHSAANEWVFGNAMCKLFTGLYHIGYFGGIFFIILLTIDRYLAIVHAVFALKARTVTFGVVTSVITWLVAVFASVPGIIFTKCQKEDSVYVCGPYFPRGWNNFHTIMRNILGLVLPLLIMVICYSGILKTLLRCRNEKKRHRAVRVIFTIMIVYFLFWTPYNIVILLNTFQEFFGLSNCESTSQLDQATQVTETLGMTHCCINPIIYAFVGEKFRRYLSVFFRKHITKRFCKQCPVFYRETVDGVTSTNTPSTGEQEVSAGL
Test: CCR2 receptor membrane binding assay ([125I]MCP-1, THP-1 cell membranes, SPA beads)
Conditions: for remaining activity at 10 µM: @ 10 μM test compound, THP-1 membranes, read-out: CCR2 % ctrl @ 10 μM; for Ki: dissociation constant hKi, [125I]MCP-1 binding to THP-1 membranes
How it was run: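 hKi was derived by iterative law-of-mass-action fitting of scintillation counts read at 8 h. Compound (1% DMSO final) competed with ca. 25000 cpm [125I]MCP-1 for THP-1 membranes bound to WGA-PVT beads. Buffer: 25 mM HEPES pH 7.2, 5 mM MgCl2, 0.5 mM CaCl2, 0.2% BSA.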

| Structure (SMILES) | remaining activity at 10 µM | Ki |
| --- | --- | --- |
| Cc1ccc(CCNc2ncnc(C(=O)N3CCC(N4CCC(O)CC4)CC3)c2C)cc1C [Example 126] | 23% | 399 nM |
| Cc1c(NCc2ccc(Cl)c(F)c2)ncnc1C(=O)N1CCC(N2CCC(O)CC2)CC1 [Example 117] | 19% | 285 nM |
| Cc1nc(NCC2CCCN(c3ccccc3)C2)c(C)c(C(=O)N2CCC(N3CCC(N(C)S(C)(=O)=O)CC3)CC2)n1 (stereo not drawn) [Example 87] | 9% | 78 nM |
| Cc1ccc(C2CCC(CNc3ncnc(C(=O)N4CCC(N5CCC(N(C)S(C)(=O)=O)CC5)CC4)c3C)O2)cc1F (stereo not drawn) [Example 159na] |  | 21 nM |
| Cc1c(NCCc2ccc(Cl)c(Cl)c2)ncnc1C(=O)N1CCC(N2CCOC(C)C2)CC1 (stereo not drawn) [Example 237] | 9% | 133 nM |
| COC1COCCC1NC1CCN(C(=O)c2ncnc(NCC3CCCCC3)c2C)CC1 (stereo not drawn) [Example 159dc] |  | 38 nM |
| Cc1c(NCCc2ccc(Cl)c(Cl)c2)ncnc1C(=O)N1CCC(N2CCN(C(=O)C(C)C)CC2)CC1 [Example 284] | 42% | 1510 nM |
| CN(C1CCN(C2CCN(C(=O)c3ncnc(NCc4ccc(C(C)(C)C)cc4)c3C#N)CC2)CC1)S(C)(=O)=O [Example 249] | 36% | 3250 nM |
| Cc1c(NCCc2ccc(Cl)c(Cl)c2)ncnc1C(=O)N1CCC(N2CCC(F)CC2)CC1 [Example 167] | 16% | 246 nM |
| Cc1c(NCC2Cc3ccccc32)ncnc1C(=O)N1CCC(N2CCC(N(C)S(C)(=O)=O)CC2)CC1 (stereo not drawn) [Example 159nb] |  | 88 nM |
| Cc1c(NCc2ccc(C(C)(C)C)cc2)ncnc1C(=O)N1CCC(N2CCC(NS(=O)(=O)C(C)C)CC2)CC1 [Example 205] | 11% | 135 nM |
| CNC(=O)[C@H]1CCCN(C2CCN(C(=O)c3ncnc(NCCc4ccc(Cl)c(Cl)c4)c3C)CC2)C1 [Example 176] | 31% | 648 nM |
| Cc1ccc(CNc2ncnc(C(=O)N3CCC(N4CCC(O)CC4)CC3)c2C)cc1Cl [Example 30] | 18% | 446 nM |
| Cc1c(NCC2COc3ccccc3C2)ncnc1C(=O)N1CCC(N2CCC(N(C)S(C)(=O)=O)CC2)CC1 (stereo not drawn) [Example 57] | 10% | 93 nM |
| Cc1c(NCc2ccc(Cl)c(Cl)c2)ncnc1C(=O)N1CCC(N2CCC3(CC2)CCN(S(C)(=O)=O)C3)CC1 [Example 188] | 53% | 3930 nM |

Reference: patent US8835440B2, “Cyclic pyrimidin-4-carboxamides as CCR2 receptor antagonists for treatment of inflammation, asthma and COPD” (Boehringer Ingelheim International GmbH, priority 2008, dated 2014)
